The values that follow come from paper PMC6069808, “Biochemical and structural features of diverse bacterial glucuronoyl esterases facilitating recalcitrant biomass conversion” (Biotechnology for Biofuels, 2018).

Common to all, as to assay: uronate dehydrogenase-coupled assay (K-URONIC), NADH formation
The subject of assay [1] is T1, OtCE15C.
T1 construct: recombinant in E. coli BL21(DE3), N-terminal His6 tag and TEV site (modified pET-28a)
In kind it is biochemical, Opitutus terrae. The settings on record: pH 7.5, 25 °C, 50 mM sodium phosphate, ≤10% DMSO.

Assay [2] concerns T2, OtCE15D.
T2 construct: recombinant in E. coli Rosetta2(DE3), N-terminal His6 tag and TEV site (modified pET-28a)
Type of assay: biochemical, Opitutus terrae. The settings on record: pH 7.5, 25 °C, 50 mM sodium phosphate, ≤10% DMSO.

For assay [3], the system named is T3, SuCE15A.
T3 construct: recombinant in E. coli BL21(DE3), N-terminal His6 tag and TEV site (modified pET-28a)
Type of assay: biochemical, Candidatus Solibacter usitatus. The note with it: pH 7.5, 25 °C, 50 mM sodium phosphate, ≤10% DMSO.

For assay [4], the system named is T4, OtCE15B.
T4 construct: recombinant in E. coli BL21(DE3), N-terminal His6 tag and TEV site (modified pET-28a); Tyr in place of the conserved Arg next to catalytic Ser
In kind it is biochemical, Opitutus terrae. The note with it: pH 7.5, 25 °C, 50 mM sodium phosphate, ≤10% DMSO. An excerpt:
uronate dehydrogenase-coupled assay (K-URONIC), NADH formation on OtCE15B

In assay [5] the target is T5, SlCE15B (Spirosoma linguale, UniProt D2QTM2).
T5 construct: gene Slin_6195; recombinant in E. coli with tig coexpression (pTf16), N-terminal His6 tag and TEV site (modified pET-28a)
In kind it is biochemical. The settings on record: pH 6.5, 25 °C, 50 mM sodium phosphate, ≤10% DMSO; range covers four enzymes.

T5 sequence (D2QTM2 entry or part of it): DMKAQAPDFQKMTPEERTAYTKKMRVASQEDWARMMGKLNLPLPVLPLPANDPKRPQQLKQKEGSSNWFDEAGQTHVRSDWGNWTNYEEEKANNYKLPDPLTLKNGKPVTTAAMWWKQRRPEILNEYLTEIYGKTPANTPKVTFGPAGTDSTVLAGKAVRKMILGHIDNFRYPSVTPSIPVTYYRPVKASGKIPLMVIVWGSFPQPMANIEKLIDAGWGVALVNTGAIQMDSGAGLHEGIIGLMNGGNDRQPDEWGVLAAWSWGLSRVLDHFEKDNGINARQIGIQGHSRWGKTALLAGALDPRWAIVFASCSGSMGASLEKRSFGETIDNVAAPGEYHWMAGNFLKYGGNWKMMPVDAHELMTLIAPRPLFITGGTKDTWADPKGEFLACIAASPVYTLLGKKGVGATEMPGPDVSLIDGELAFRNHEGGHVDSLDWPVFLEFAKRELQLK

In general, Km refers to the substrate concentration at which the rate is half of its maximum. Regarding `C=CCOC(=O)[C@H]1OC(O)[C@H](O)[C@@H](O)[C@@H]1O` (some centres unmarked) [AllylGlcA], the Km in assay [1] was determined as 2210 ± 120 µM; in assay [2], 2080 ± 90 µM; in assay [3], 1240 ± 170 µM.
Take `O=C(OCc1ccccc1)[C@H]1OC(O)[C@H](O)[C@@H](O)[C@@H]1O` (some centres unmarked) [BnzGlcA]: the Michaelis-Menten constant (Km) in assay [1] (range covers four enzymes) is 400 to 600 µM; in assay [2] (range covers four enzymes) it was 400 to 600 µM; in assay [4], 7940 ± 870 µM; in assay [5] it was 400 to 600 µM; in assay [3] (range covers four enzymes), 400 to 600 µM.
With `COC(=O)[C@H]1OC(O)[C@H](O)[C@@H](O)[C@@H]1O` (some centres unmarked) [MeGlcA], the Km was 4010 ± 55 µM in assay [1], 12300 ± 710 µM in assay [2] and 4310 ± 400 µM in assay [3].
